In patent US7923984B2, “Universal, wireless, nano-optical voltmeters” (The Regents of the University Of Michigan, priority 2007, dated 2011):
Structures can show the parent of a compound that is named as a salt.

Assays:
[1] = tested on: astrocytes, mitochondrial and microfilament regions; assay: CCCP challenge of mitochondrial and microfilament regions in astrocytes; format: cell-based; details: CCCP at 3 min 45 sec
Method: Microfilaments in astrocytes. Astrocytes were co-incubated with E-PEBBLEs and alexafluor-phalloidin (a microfilament stain). The fluorescence arising from the mitochondria, E-PEBBLEs, and microfilaments were able to be resolved though use of different fluorescent emission filters.
The cells were challenged with CCCP at 3 min 45 sec using normal experimental parameters, as described in Example 7.

[2] = tested on: mitochondrial membrane E field in DITNC astrocytes; assay: Sequential CCCP depolarizations in astrocytes monitored by NOVs; format: cell-based; details: 5 μM CCCP, second dose at 46 minutes
Method: Repeat depolarizations were performed as follows. Astrocytes were prepared as above, but the cell chamber only contained 500 μL of HBSS with HEPES. 500 μL CCCP (5 μM final concentration in chamber) was added and images were collected every minute for the first 10 minutes after the addition of CCCP and every 5 minutes thereafter until the 45 minute time point. Then 500 μL of the CCCP solution was added at the 46 minute time point, and the images taken every minute until the 55 minute time point and every five minutes until the 90 minute time point.
(§1) Image analysis was performed as follows. Images were transferred to the MetaMorph image analysis package and regions of interest chosen consistent with TMRM-induced mitochondrial fluorescence, or the autofluorescent mitochondria of the astrocytes. In some cases, the images were expanded and regions of interest (ROI) were also chosen from the surrounding cytosol. The average pixel intensity ratio of the 600 nm image versus the 700 nm image was then calculated. For the TMRM channel, the average pixel intensity was recorded.
Sequential depolarizations were performed as follows. Astrocytes with autofluorescent mitochondria (to eliminate the need for TMRM) were incubated with NOVs, transferred to a confocal microscope, and the mitochondrial membrane depolarized with the use of CCCP. […]

[3] = tested on: mitochondrial membrane E field in DITNC astrocytes; assay: CCCP challenge of mitochondrial membrane E field in DITNC astrocytes measured by E-PEBBLEs; format: cell-based, rat; details: CCCP 12.2 μM added at 3 min 40 s
Method: Mitochondrial membrane and cytosol potentials were measured as follows. Immortalized rat (DITNC) astrocytes with autoflourescent mitochondria (American Type Culture Collection, Manassas, Va.) were plated on to glass cover slips at a concentration of ˜2×10^5 cells/mL. Cells were incubated in Dulbecco's Modified Eagle Medium (DMEM) supplemented with 10% fetal bovine serum and 1% penicillin/streptomycin (Invitrogen, Carlsbad, Calif.) overnight. The media was then removed and replaced with fresh media. […] The cover slip was rinsed with Hank's Balanced Salt Solution (HBSS) (Invitrogen, Carlsbad, Calif.) containing 10 mmol N-2-Hydroxyethylpiperazine-N′-2-Ethane Sulfonic Acid (HEPES) and placed in a stainless steel cell chamber with 1 mL HBSS containing 10 mmol HEPES. In some cases, tetramethylrhodamine methyl ester (TMRM) (Molecular Probes, Eugene, Oreg.) dissolved in dimethyl sulfoxide (DMSO) was added to the chamber for a total concentration of ˜50 nM to confirm mitochondrial fluorescence.
The entire chamber was mounted on a confocal microscope at room temperature (Olympus IX70 connected to a Life Science Resources UltraView equipped with an Ar—Kr laser and a Lambda 10-2 Sutter wheel from Sutter Instrument Co. Novato, Calif.) and examined with a 60× objective connected to a Z series motor. Four Z stacks were taken 1 minute apart, starting with time zero. […] Slices analyzed were ˜3-4 microns into the cell as measured from the bottom of the cell. […]
Cellular image analysis was performed as follows. Images of specific focal planes were transferred to the MetaMorph image analysis package and regions of interest (ROI) chosen consistent with TMRM-induced mitochondrial fluorescence, or the autofluorescent mitochondria of the astrocytes. […] The average pixel intensity was determined for each ROI, and the emission ratio of the 525:700 nm images was then calculated. In some cases, the emission ratio of 600:700 nm was calculated. […] For the TMRM channel, the average pixel intensity was recorded. […]

[4] = tested on: mitochondrial membrane E field in DITNC astrocytes; assay: Repeated CCCP depolarizations in astrocytes measured by E-PEBBLEs; format: cell-based, rat; details: 3.1 μM at 3 min 50 s, second dose at 33 min 50 s; 600:700 nm ratio
Method: Repeated depolarizations of mitochondrial membrane potentials were performed as follows. Astrocytes were prepared as described above. Z series of Images were taken every minute for 15 minutes and every 5 minutes thereafter for 30 minutes. At time 3 minutes 50 sec, 1 μL of a CCCP solution (3.1 mM dissolved in DMSO and HBSS with HEPES; concentration in chamber was 3.1 μM) was added to the chamber. Starting at the 30 minute time point, images were again taken every minute until the 45 minute time point and every five minutes thereafter until the 60 minute time point. At time 33 minutes 50 seconds, a second dose of CCCP (3.1 mM) was added. The final concentration in the cell chamber for CCCP was 6.1 μM.
Cellular image analysis was performed as follows. Images of specific focal planes were transferred to the MetaMorph image analysis package and regions of interest (ROI) chosen consistent with TMRM-induced mitochondrial fluorescence, or the autofluorescent mitochondria of the astrocytes. In some cases, the images were expanded and regions of interest were also chosen from the surrounding cytosol. The average pixel intensity was determined for each ROI, and the emission ratio of the 525:700 nm images was then calculated. In some cases, the emission ratio of 600:700 nm was calculated. […] For the TMRM channel, the average pixel intensity was recorded. […]

[5] = tested on: mitochondrial membrane E field in C6 glioma cells; assay: CCCP depolarization of mitochondria in C6 gliomas monitored by NOV; format: cell-based, Mouse; details: CCCP total concentration 10 μM
Method: Depolarization, comparison with TMRM, and cytosol measurements were performed as follows. Mouse C6 glioma cells were plated on to glass cover slips at a concentration of approximately 2.5×10^5 cells/mL. Cells were incubated in DMEM supplemented with 10% FBS and 1% p/s overnight. The media was then removed and replaced with fresh media. NOVs were added to the suspension (125-250 μg particles) and the cells incubated for 30 minutes. The cover slip was rinsed with HBSS containing 10 mmol N-2-Hydroxyethylpiperazine-N′-2-Ethane Sulfonic Acid (HEPES) and placed in a stainless steel cell chamber with 1 mL HBSS containing 10 mmol HEPES. […]
as §1, with “In some cases, the images were expanded and regions of interest (ROI) were also chosen from the surrounding cytosol.” left out
CCCP depolarization was performed as follows. […] A region of interest was first determined in Metamorph by the punctuated bright areas that indicated mitochondria through TMRM localization. The emission ratio was then determined at the measurement time points. […]

[6] = tested on: DITNC astrocytes; assay: Uptake, localization and tolerability of E-PEBBLEs in astrocytes; format: cell-based, rat; details: same final dye concentration as delivered in the E-PEBBLEs
Text: Cells were illuminated at 488 nm and the fluorescent images were collected at 600 nm (50 nm band pass), 700 nm (50 nm band pass), and 525 nm (50 nm band pass).
Cell groups that appeared visually robust (i.e., elongate with little or no ruffling or blebbing of the membrane) were used for analysis.

[7] = tested on: C6 glioma cells; assay: Localization, uptake and cytotoxicity of particles in C6 glioma cells; format: cell-based, Rat; details: same final dye concentration as delivered in the NOV
Method: Mouse C6 glioma cells were plated on to glass cover slips at a concentration of approximately 2.5×10^5 cells/mL. Cells were incubated in DMEM supplemented with 10% FBS and 1% p/s overnight. The media was then removed and replaced with fresh media. NOVs were added to the suspension (125-250 μg particles) and the cells incubated for 30 minutes. The cover slip was rinsed with HBSS containing 10 mmol N-2-Hydroxyethylpiperazine-N′-2-Ethane Sulfonic Acid (HEPES) and placed in a stainless steel cell chamber with 1 mL HBSS containing 10 mmol HEPES. In some cases TMRM dissolved in dimethyl sulfoxide was added to the chamber for a total concentration of 50 nM and the chamber was allowed to equilibrate for 10 minutes. The entire chamber was mounted on the confocal microscope and examined with a 60× objective connected to a Z series motor. One mL of a CCCP solution (total concentration 10 μM and, in some cases, containing 50 nM TMRM) was added to the cell chamber and a timer started. A series of images (1 to 2 μm in thickness) was taken in the vertical plane 15 seconds after addition of the CCCP solution, and then every minute for the first 10 minutes. Images were taken at 5 minute intervals thereafter until the 30 minute time point. Cells were illuminated at 488 nm and the fluorescent images were collected at 600 nm (50 nm band pass) and 700 nm (50 nm band pass) for the first two channels. […]

Row | SMILES | response of microfilament regions to CCCP [1] | response of mitochondrial regions to CCCP [1] | change of mitochondrial E field after CCCP [2] | drop in E field from minute 3 to minute 4 [3] [%] | mitochondrial E field at t=4 min after CCCP [3] | overall drop in E field from t=0 min to t=30 min [3] [%] | change of mitochondrial E field after repeated CCCP doses [4] | time for mitochondrial E field to approach zero after addition of CCCP [5] | fluorescence of cells exposed to free dye in an aqueous solution (uptake) [6] | fluorescence of cells exposed to free dye in water (uptake) [7]
1 | N#CC(C#N)=NNc1cccc(Cl)c1 [CCCP, Carbonyl cyanide 3-chlorophenylhydrazone] | spike at the 10-15 minute time point | normal depolarization | decrease in the E field during the first 10 minutes | 55 | −1.4×10^6 V/m | 55 | the E field rapidly decreases, followed by a modest repolarization | approximately 10 minutes |  | 
2 | CCCCN(CCCC)c1ccc2cc(C=Cc3cc[n+](CCCS(=O)(=O)[O-])cc3)ccc2c1 [free dye, pyridinium, 4-(2-(6-(dibutylamino)-2-naphthalenyl)ethenyl)-1-(3-sulfopropyl)-, hydroxide, inner salt] |  |  |  |  |  |  |  |  | did not fluoresce | did not fluoresce
